The assay can be described thus: Inhibition of ASM (unknown origin)-mediated KRAS mislocalization from plasma membrane.

Structures can show the parent of a compound that is named as a salt.

In turn, `CC(NCCC(c1ccccc1)c1ccccc1)c1ccccc1` (stereo unspecified) [FENDILINE HYDROCHLORIDE] showed a concentration for half-maximal inhibition (IC50) of 5.6 µM.

The values are drawn from BindingDB's records for doi:10.1016/j.ejmech.2021.113381 (University of Texas Medical Branch, 2021).
